The text below walks through data of patent publication US7977352B2, “Triazolopyridine compounds useful for the treatment of degenerative and inflammatory diseases” (Galapagos NV, priority 2006, dated 2011).

SMILES strings stand for the structures. A value given as a limit tells only on which side of the number the result lay.

The subject of assay [1] is MMP1 expression by activated synovial fibroblasts (RASFs). As to the kind of experiment: MMP assay: MMP1 expression by RASFs triggered with TNF-α (MMP1 ELISA). The class given is cell-based. The conditions noted are these: Fibroblast, 48 h, TNF-α trigger 10 ng/mL, semi-quantitative score, read-out: REDUCTION MMP1/TNFa. The procedure: A 384-well format ELISA for measurement of MMP1 is developed. Various primary antibodies are tested, as well as various ELISA protocols. The following protocol is developed and validated to measure MMP1 levels in SF supernatant in 384 well plates: white Lumitrac 600 384 well plates (Greiner) are coated with 2 μg/mL anti-MMP1 antibody MAB1346 (Chemicon). The antibody is diluted in buffer 40 (1.21 g Tris base (Sigma), 0.58 g NaCl (Calbiochem) and 5 mL 10% NaN3 (Sigma) in 1 L milliQ water and adjusted to pH 8.5). After overnight incubation at 4° C., plates are washed with PBS (80 g NaCl, 2 g KCl (Sigma), 11.5 g Na2HPO4.7H2O and 2 g KH2PO4 in 10 L milliQ; pH 7.4) and blocked with 100 μL/well Casein buffer (2% Casein (VWR International) in PBS). Next day, casein buffer is removed from ELISA plates and replaced by 50 μL/well EC buffer (4 g casein, 2.13 g Na2HPO4 (Sigma), 2 g bovine albumin (Sigma), 0.69 g NaH2PO4.H2O (Sigma), 0.5 g CHAPS (Roche), 23.3 g NaCl, 4 mL 0.5 M EDTA pH 8 (Invitrogen), 5 mL 10% NaN3 in 1 L milliQ and adjusted to pH 7.0). 0.25 mM DTT (Sigma) is added to the thawed sample plates. After removal of the EC buffer, 20 μL of sample is transferred to the ELISA plates. After overnight incubation at 4° C. plates are washed twice with PBS and once with PBST (PBS with 0.05% Tween-20 (Sigma)) and incubated with 35 μL/well biotinylated anti-MMP1 antibody solution (R&D). This secondary antibody is diluted in buffer C (0.82 g NaH2PO4.H2O, 4.82 g Na2HPO4, 46.6 g NaCl, 20 g bovine albumin and 4 mL 0.5M EDTA pH 8 in 2 L milliQ and adjusted to pH 7.0) at a concentration of 5 μg/mL. After 2 h of incubation at RT, plates are washed as described above and incubated with 50 μL/well streptavidin-HRP conjugate (Biosource). Streptavidin-HRP conjugate is diluted in buffer C at a concentration of 0.25 μg/mL. After 45 min, plates are washed as described above and incubated for 5 min with 50 μL/well BM Chem ELISA Substrate (Roche). Readout is performed on the Luminoscan Ascent Luminometer (Labsystems) with an integration time of 200 msec or with an Envision reader (Perkin Elmer).
SFs were acquired at passage 1 from a commercial supplier (Cell applications, Inc.). SFs are cultured in DMEM supplemented with 10% heat-inactivated FBS, 1× penicillin/streptomycin (Invitrogen) at 37° C., 10% CO2 until passage 6. Aliquots of the cells are frozen and cryopreserved in liquid nitrogen. Starting from a cryopreserved aliquot, cells are further expanded by sub-culturing cells at 1/3 ratio every week. Cells between passage 10 and 12 are routinely used in compound testing according to following protocol.
Starting from the compound master stocks (all at 10 mM concentration in 100% DMSO) a 3-fold serial dilution is made in 96-well plates in 100% DMSO. Then, plates are further diluted 45-fold in M199 medium supplemented with 1% heat-inactivated FBS to obtain a intermediate work stock.
At day 1, RASFs are seeded in 96 well plates (flat bottom, tissue culture treated, Greiner) at a density of 3000 cells/well in complete synovial growth medium (Cell Applications). Day 5, the medium is completely removed from the cells, and replaced by 81 μL of M199 medium supplemented with 1% heat-inactivated FBS followed by addition of 10 μL compound out of the intermediate work stock. After an incubation period of 90 minutes, which allows the compounds to equilibrate and enter the cells, cells are stimulated with either TNF-α or ‘complex trigger’. TNF-α trigger is added in a volume of […] to obtain final concentration of 10 ng/mL. For that, TNF-α stock (PeproTech) at 10 μg/mL was diluted to 100 ng/mL TNF-a in M199 medium supplemented with 1% FBS. ‘Complex trigger’ mix is added in a volume of 20 μL to obtain a final concentration of 12.5%. For that, ‘complex trigger’ mix, is diluted to 80% with M199 medium supplemented with 1% FBS. […]

Assay [2] concerns the target T1, TAK1-TAB1 fusion protein (Homo sapiens, UniProt O43318).
T1 construct: purchased Upstate 14-600
T1 sequence (O43318 with tags, fused parts or gaps limits assumed): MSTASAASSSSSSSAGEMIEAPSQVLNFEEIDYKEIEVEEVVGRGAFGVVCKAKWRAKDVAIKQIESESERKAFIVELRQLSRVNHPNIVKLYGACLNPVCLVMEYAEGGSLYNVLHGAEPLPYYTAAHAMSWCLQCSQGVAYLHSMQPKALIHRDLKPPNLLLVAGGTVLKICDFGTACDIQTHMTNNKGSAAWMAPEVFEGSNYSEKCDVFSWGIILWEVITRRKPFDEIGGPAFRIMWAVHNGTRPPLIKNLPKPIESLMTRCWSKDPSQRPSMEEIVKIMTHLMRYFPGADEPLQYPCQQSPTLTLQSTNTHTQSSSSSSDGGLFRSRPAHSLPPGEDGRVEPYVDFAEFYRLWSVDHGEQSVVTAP
Description: In vitro TAK1 kinase assay. The format is biochemical. The conditions noted are these: casein substrate, [33P]-γ-ATP, 90 minutes at 30° C., semi-quantitative score, read-out: POTENCY TAK1 (MAP3K7). The method, then: For assessing TAK1 inhibition, active TAK1-TAB1 fusion protein was used from Upstate (Cat. No, 14-600). Kinase reactions are set up in 96-well polypropylene plates in 25 μL containing 0.5 mU TAK1-TAB1 fusion protein, 5mM ATP, 0.01 μCi/μL [^33P]-γ-ATP, 0.1 mg/mL casein substrate in 1× reaction buffer containing 10 mM MOPS pH 7.0, 1 mM EDTA.
Starting from the compound master stocks (all at 10 mM concentration in 100% DMSO) a 3-fold serial dilution is made in 96-well plates in 100% DMSO. Plates are further diluted […] in H2O containing 3.5% DMSO, to obtain an intermediate work stock with compounds at 5× the final assay concentration in 5% DMSO.
5 μL of the intermediate stock is transferred into V-bottom 96 well polypropylene plates and 11 μL of Enzyme mix is added. Enzyme mix is made by combining 5 μL 5× reaction buffer ([…] pH 7.0, 1 mM EDTA), 5 μL casein (Sigma) diluted in H20 to 0.5 mg/mL and 1 μL of TAK1-TAB1 fusion protein that was prediluted to 0.5 mU/μL in 1× enzyme dilution buffer (20 mM MOPS pH 7.0, 0.1 mM EDTA, 0.01% Brij-35, 5% glycerol, 1 mM DTT, 1 mg/ml BSA).
The reactions are started by the addition of 9 μL of mixture containing ATP (20.83 uM) and [^33P]-γ-ATP (0.028 μCi/μL).
The assay is stopped 90 minutes after incubation at 30° C. by the addition of 25 μL phosphoric acid (150 mM). The label incorporated into the casein substrate is separated from labeled unincorporated ATP by filtration onto 96-well filter plates using a harvester device. After 6 washes with 75 mM phosphoric acid, the bottom of the filter plates are sealed, and incorporated label is quantified after addition of 40 μL scintillation fluid using TopCount.

Take `C[C@@H]1CN(C)[C@@H](C)CN1c1ccc(Nc2ccc(-c3cc[nH]c(=O)c3)n3ncnc23)cc1` (racemic) [Example 10, rel-4-[8-({4-[(2R,5S)-2,4,5-trimethylpiperazin-1-yl]phenyl}amino)[1,2,4]triazolo[1,5-a]pyridin-5-yl]pyridin-2(1H)-one]: the IC50 in assay [1] is 0.501 to 1 µM; in assay [2] it was below 0.5 µM.
On the same counts, the results for `CCN1CCN(c2ccc(Nc3ccc(-c4cc[nH]c(=O)c4)n4ncnc34)cc2)CC1` [Example 19, 4-(8-{[4-(4-ethylpiperazin-1-yl)phenyl]amino}[1,2,4]triazolo[1,5-a]pyridin-5-yl)pyridin-2(1H)-one] are 1 to 5 µM and below 0.5 µM.
Consider `CCCN1CCN(c2ccc(Nc3ccc(-c4ccnc(OC)c4)n4ncnc34)cc2)CC1` [Example 27, 5-(2-methoxypyridin-4-yl)-N-[4-(4-propylpiperazin-1-yl)phenyl][1,2,4]triazolo[1,5-a]pyridin-8-amine], for which the IC50 was 1 to 5 µM in assay [1] and above 10 µM in assay [2].
Take `CC(C)N1CCN(c2ccc(Nc3ccc(-c4cccc5[nH]ccc45)n4ncnc34)cc2)CC1` [Example 49, 5-(1H-indol-4-yl)-N-[4-(4-isopropylpiperazin-1-yl)phenyl][1,2,4]triazolo[1,5-a]pyridin-8-amine]: the figures for the IC50 in assay [1] and in assay [2] were above 10 µM and 1 to 5 µM, respectively.
On the same counts, the results for `CCN1CCN(c2ccc(Nc3ccc(-c4ccc(C(N)=O)cc4)n4ncnc34)cc2)CC1` [Example 12, 4-(8-{[4-(4-ethylpiperazin-1-yl)phenyl]amino}[1,2,4]triazolo[1,5-a]pyridin-5-yl)benzamide] are below 0.5 µM and below 0.5 µM.
On the same counts, the results for `COc1cc(-c2ccc(Nc3ccc(N4CCN(C5CCC5)CC4)cc3)c3ncnn23)ccn1` [Example 31, N-[4-(4-cyclobutylpiperazin-1-yl)phenyl]-5-(2-methoxypyridin-4-yl)[1,2,4]triazolo[1,5-a]pyridin-8-amine] are 5 to 10 µM and above 10 µM.
On the same counts, the results for `CCC(CC)N1CCN(c2ccc(Nc3ccc(-c4cc[nH]c(=O)c4)n4ncnc34)cc2)CC1` [Example 21, 4-[8-({4-[4-(1-ethylpropyl)piperazin-1-yl]phenyl}amino)[1,2,4]triazolo[1,5-a]pyridin-5-yl]pyridin-2(1H)-one] are above 10 µM and below 0.5 µM.
With `COc1cc(-c2ccc(Nc3ccc(N4CCN(CCC(C)C)CC4)cc3)c3ncnn23)ccn1` [Example 29, 5-(2-methoxypyridin-4-yl)-N-{4-[4-(3-methylbutyl)piperazin-1-yl]phenyl}[1,2,4]triazolo[1,5-a]pyridin-8-amine], the IC50 in assay [1] was 1 to 5 µM; in assay [2], above 10 µM.
On the same counts, the results for `CC(C)N1CCN(c2ccc(Nc3ccc(-c4cccc(C(N)=O)c4)n4ncnc34)cc2)CC1` [Example 44, 3-(8-{[4-(4-isopropylpiperazin-1-yl)phenyl]amino}[1,2,4]triazolo[1,5-a]pyridin-5-yl)benzamide] are 1 to 5 µM and above 10 µM.
As to `CC(C)CCN1CCN(c2ccc(Nc3ccc(-c4ccc(C(N)=O)cc4)n4ncnc34)cc2)CC1` [Example 15, 4-[8-({4-[4-(3-methylbutyl)piperazin-1-yl]phenyl}amino)[1,2,4]triazolo[1,5-a]pyridin-5-yl]benzamide], the IC50 in assay [1] is 1 to 5 µM; in assay [2], below 0.5 µM.
For the molecule `c1cc(-c2ccc(Nc3ccc(N4CCOCC4)cc3)c3ncnn23)c2cc[nH]c2c1` [Example 48, 5-(1H-indol-4-yl)-N-(4-morpholin-4-ylphenyl)[1,2,4]triazolo[1,5-a]pyridin-8-amine], the IC50 was 1 to 5 µM in assay [1] and above 10 µM in assay [2].
For `O=c1cc(-c2ccc(Nc3ccc(N4CCN(C5CCC5)CC4)cc3)c3ncnn23)cc[nH]1` [Example 24, 4-(8-{[4-(4-cyclobutylpiperazin-1-yl)phenyl]amino}[1,2,4]triazolo[1,5-a]pyridin-5-yl)pyridin-2(1H)-one] the same measures were 1 to 5 µM and below 0.5 µM.
For `CC(C)N1CCN(c2ccc(Nc3ccc(-c4c[nH]c(=O)[nH]c4=O)n4ncnc34)cc2)CC1` [Example 55, 5-(8-{[4-(4-isopropylpiperazin-1-yl)phenyl]amino}[1,2,4]triazolo[1,5-a]pyridin-5-yl)pyrimidine-2,4(1H,3H)-dione] the same measures were above 10 µM and above 10 µM.
On the same counts, the results for `NC(=O)c1cc(-c2ccc(Nc3ccc(N4CCOCC4)cc3)c3ncnn23)ccc1F` [Example 45, 2-fluoro-5-{8-[(4-morpholin-4-ylphenyl)amino][1,2,4]triazolo[1,5-a]pyridin-5-yl}benzamide] are above 10 µM and above 10 µM.
With `NC(=O)c1ccc(-c2ccc(Nc3ccc(N4CCN(C5CCC5)CC4)cc3)c3ncnn23)cc1` [Example 16, 4-(8-{[4-(4-cyclobutylpiperazin-1-yl)phenyl]amino}[1,2,4]triazolo[1,5-a]pyridin-5-yl)benzamide], the IC50 in assay [1] was 5 to 10 µM; in assay [2], below 0.5 µM.
